Assays:
Porcine kidneys = experiment: Pulsatile perfusion preservation of explanted porcine kidneys; details: GSNO 90 micromolar, L-NIL 694 micromolar
Protocol: GSNO and L-NIL dihydrate hydrochloride were purchased from Alexis Corporation (San Diego, Calif.). Solution A was prepared by weighing out 30 milligrams of GSNO powder and adding it to 1 milliliter of Belzer Machine Perfusion solution (Transmed, Elk Grove, Minn.), and then injecting it into 1 liter of Belzer Perfusion solution while the perfusion solution was circulating through a Waters Instruments (Rochester, Minn.) kidney perfusion circuit (final concentration: 30 milligrams/liters; 90 micromolar). Solution B was prepared by weighing out 187 milligrams of L-NIL dihydrate hydrochloride powder and adding it to 3.5 milliliters of Belzer Machine Perfusion solution, and then injecting it into Solution A while the solution was circulating through a Waters Instruments kidney perfusion circuit (final concentration: 187 milligrams/liter; 694 micromolar).
Porcine kidneys were obtained following a warm ischemic time of 30-45 minutes. The kidneys were flushed with 1 L of Lactated Ringer's solution at 5 degrees C., and then flushed with 1 L Viaspan™ solution (DuPont, Wilmington, Del.) at 5 degrees C. The kidneys were then stored at 5 degrees C. for 3-30 h, at which time the kidneys were placed on a Waters Instruments (Rochester, Minn.) kidney perfusion circuit and perfused with 1 L of Belzer Machine Perfusion solution (Transmed, Elk Grove, Minn.). During the perfusion period, the kidneys were kept at a constant pressure of 40 mmHg. Eight kidneys were perfused with Belzer Machine Perfusion solution only, another eight kidneys were perfused with Belzer Machine Perfusion solution containing solution A (prepared as in Example 1), and a further eight kidneys were perfused with Belzer Machine Perfusion solution containing Solution B (prepared as in Example 1).
Hourly samples (3 ml total) were taken from each kidney for at least 5 hours, and in some cases 6 hours. Blood chemistry was analyzed using a GEMStat analyzer (Instruments Laboratory, Boston, Mass.). Statistical analyses were performed using Sigmastat software (SPSS, Chicago, Ill.).

[1] = system: porcine coronary arteries; details: porcine model of balloon angioplasty and subsequent endovascular radiation; cited from earlier work
[2] = statistically significant effect relative to control perfusion solution, 5-6 h

In the case of `N[C@@H](CCC(=O)N[C@@H](CSN=O)C(=O)NCC(=O)O)C(=O)O` [GSNO, S-nitrosoglutathione], the “Vascular Resistance” value (Porcine kidneys; statistically significant effect relative to control (Belzer Machine Perfusion solution only), constant pressure 40 mmHg, hourly samples 5-6 h) is reported as “Lower”, the “Base Excess” value (Porcine kidneys; [2]) is reported as “More” and the “Ca2+” value (Porcine kidneys; [2]) is reported as “Higher”. For the same compound, the Hematocrit (Porcine kidneys; [2]) was “Lower”, the “Oxygen Saturation” value (Porcine kidneys; [2]) was “Equal” and the Flow (Porcine kidneys; statistically significant effect relative to control perfusion solution, 40 mmHg, 5-6 h) was “Higher”. The thrombosis [1] was “suppress thrombosis”.

Reference: patent US6811965B2, “Kidney perfusion solution containing nitric oxide donor, inhibitor of NOS2, glutathione, gluconate and methods of use” (priority 2000, dated 2004)
